The values that follow come from ChEMBL document CHEMBL1147916, “2-(2-(2-Ethoxybenzoylamino)-4-chlorophenoxy)-N-(2-ethoxybenzoyl)benzamine inhibits EAT cell induced angiogenesis by down regulation of VEGF secretion” (2007).

Test [1] deals with EAT. Briefly: Antiangiogenic activity against EAT cells bearing Swiss Albino mouse assessed as cell number at 100 mg/kg after 12 days by trypan blue dye exclusion method. The test is classed as functional, organism-based. More on the design: dose 100 mg/kg.
Test [2] relates to EAT. Description: Inhibition of VEGF secretion in EAT cells bearing Swiss Albino mouse at 100 mg/kg after 6 days by VEGF ELISA. The arrangement: dose 100 mg/kg. The test is classed as functional, organism-based.
Test [3] in a line: Antiangiogenic activity against swiss albino mouse EAT cells assessed as decrease in body weight at 100 mg/kg after 6 days. The test is classed as functional. The arrangement: scale not given: the % may be the effect or the level left.
The test system of test [4] is EAT. Description: Antiangiogenic activity against EAT cells bearing Swiss Albino mouse assessed as microvasculature at 100 mg/kg after 6 days by peritoneal angiogenesis assay. Format: functional, organism-based. The arrangement: dose 100 mg/kg.
Test [5] relates to EAT. Description: Antiangiogenic activity against EAT cells bearing Swiss Albino mouse assessed as ascites volume at 100 mg/kg after 12 days. The test is classed as functional, organism-based. The arrangement: dose 100 mg/kg.
The subject of test [6] is EAT. Description: Antiangiogenic activity against EAT cells bearing Swiss Albino mouse by CAM assay. The test is classed as functional.

Activity calls are given as the source filed them. The calls are words filed in the database; no cut-off is given here.

As to `CCOc1ccccc1C(=O)Nc1ccccc1Oc1ccc(Cl)cc1NC(=O)c1ccccc1OCC`, the outcome with EAT [1], in the test with EAT [2], in the test with EAT [4], in the test with EAT [5] and in the test with EAT [6] was Active. Further, the Activity in test [3] is 65%.
